Results from US20250109127A1, “METHODS OF USE OF PHENOXYPROPYLAMINE COMPOUNDS TO TREAT DEPRESSION” (Minerva Neurosciences, Inc., priority 2013, published 2025).
“And” between values parts separate entries of the source, which are not always exact repeats. Equal entries are not always repeated. Structures can show the parent of a compound that is named as a salt.

System: HVA release in the rat prefrontal cortex
Test: Microdialysis: HVA release in prefrontal cortex after I.P. administration
Type: in vivo
Settings: for HVA release (% of basal levels) measured in dialysates: individual animals, hydrochloride, 3 mg/kg; for HVA release (% of basal levels) measured in dialysates, MEAN / HVA (% of respective basal) MEAN: n = 8; for HVA (% of respective basal) MEAN: SON-117 group 0.1 mg/kg I.P.
Experimental: The aim of the study was to evaluate, using microdialysis, the effects of an intraperitoneal (I.P.) administration in rats of three different doses of SON-117 on dopamine and its metabolites, serotonin and its metabolite (5-HIAA), and norepinephrine levels in prefrontal cortex.
Thirty-two adult male Wistar rats were used for the whole study (4 groups of eight animals planned for the study, Table 1).
Surgery was performed on rats weighing about 300 g at the beginning of the experiments. Rats were anaesthetized with Ketamine (50 mg/kg) & Xylazine (15 mg/kg) by intramuscular administration. The animals were placed in a stereotaxic apparatus in the flat-skull position at a constant setting of −3.3 mm between ear bars and the incisor bar. The animals were treated with a local anesthesic (xylocaine 1%, Astra Zeneca) and an analgesic (Temgesic, from Schering Plough, 0.05 mg/kg, s.c.). A rostrocaudal midline incision was made with a lancet to expose the dorsal skull surface. The “stereotaxic zero” was defined by the Bregma in accordance with Paxinos and Watson's atlas (1986). A hole was drilled in the skull with a drill and the meninges were pierced with a sterile needle to implant a CMA12 guide cannula which later received the dialysis probe.
Coordinates used for implanting guide cannula in prefrontal cortex from Bregma were anteroposterior 3.7 mm, mediolateral 0.8 mm, and dorsoventral −2 mm (top of the probe was at −5 mm). The guide cannula was fixed to the skull with two stainless steel screws (1.88 mm outside diameter) anchored. An application of dental cement was added. A plastic collar allowed each animal to be tethered to a Swivel assembly of the CMA 120 awake animal system. Following surgery, rats were kept in individual cages and allowed to recover for a minimum of 3-5 days before the experimentation. The rats were handled and put in plastic bowl for 10 min at least every day to habituate the animals to their new environment for the dialysis. An I.P. administration with saline was also performed every day.
Dialysis probes (CMA12/3 mm, membrane, 20 kD cut-off, Carnegie Medicine, Stockholm, Sweden), were carefully washed before inserting into the guide cannula. The wash was performed with the artificial cerebrospinal fluid (aCSF) medium (NaCl 147 mM, KCl 2.7 mM, CaCl2 1.2 mM, MgCl2 0.85 mM) at room temperature. The dialysis system was then equilibrated at 20° C. at a perfusion rate of 1 μl/min with a Carnegie pump (CMA100). All catheters (FEP tubing, internal volume of 1.2 μl/10 cm, and tubing adaptors) used for microdialysis were treated in the same conditions.
The probes duly prepared were inserted into the guide cannula and the CMA120 Swivel assembly secured to the animal using a plastic collar. Flow through the dialysis probe with aCSF was maintained at a rate of 1 μl/min during the whole experimentation. The first four fractions (corresponding to 2 hours) were discarded to avoid the effects of parenchymal disturbance and to ensure that an approximate steady-state level was reached. Fractions were then collected over a period of 8.5 h during which time the animals remained quiet. The dialysates were automatically collected with an autosampler (microfraction collector CMA 140, Carnegie Medicin) and stored at −80° C. until analysis. […] Perfusion was then maintained for 7 hours with aCSF. The dialysates (30 μl) were collected into 300 μl vials, transferred into dry ice and then kept frozen (−80° C.) until analysis. Frozen samples were shipped to a partner for analysis. At the end of the microdialysis study, a PBS with colored ink was perfused through the probe in order to visualize the dialyzed area.
Catecholamine assay: Concentrations of dopamine, DOPAC, HVA, 5-HIAA, 5-HT, and norepinephrin were determined for each sample by HPLC coupled with electrochemical detection.

[1] = SON-117 3 mg/kg IP, T1 h 30-T2 h
[2] = SON-117 3 mg/kg IP, T1 h-T1 h 30
[3] = SON-117 3 mg/kg IP, T2 h 30-T3 h
[4] = SON-117 3 mg/kg IP, T2 h-T2 h 30
[5] = SON-117 3 mg/kg IP, T3 h 30-T4 h
[6] = SON-117 3 mg/kg IP, T3 h-T3 h 30
[7] = SON-117 3 mg/kg IP, T4 h 30-T5 h
[8] = SON-117 3 mg/kg IP, T4 h-T4 h 30
[9] = SON-117 3 mg/kg IP, T5 h 30-T6 h
[10] = SON-117 3 mg/kg IP, T5 h-T5 h 30
[11] = SON-117 3 mg/kg IP, T6 h 30-T7 h
[12] = SON-117 3 mg/kg IP, T6 h-T6 h 30

Structure (SMILES): Cc1nnc(-c2cc3c(OC[C@@H](O)CN4CCC(c5ccc(Cl)c(Cl)c5)CC4)cccc3o2)o1 [SON-117, (S)-1-(4-(3,4-dichlorophenyl)piperidino)-3-(2-(5-methyl-1,3,4-oxadiazol-2-yl)benzo(b)furan-4-yloxy)-2-propanol hydrochloride]
- HVA release (% of basal levels) measured in dialysates (SON-117 3 mg/kg IP, T30-T1 h): 87.52 % of basal levels and 80.65 % of basal levels and 76.40 % of basal levels and 105.83 % of basal levels and 105.61 % of basal levels and 95.14 % of basal levels and 127.36 % of basal levels and 107.87 % of basal levels
- HVA release (% of basal levels) measured in dialysates, MEAN [1]: 106.02 % of basal levels
- HVA release (% of basal levels) measured in dialysates [1]: 84.71 % of basal levels and 105.56 % of basal levels and 94.73 % of basal levels and 137.50 % of basal levels and 83.65 % of basal levels and 91.30 % of basal levels and 115.23 % of basal levels and 135.51 % of basal levels
- HVA release (% of basal levels) measured in dialysates, MEAN [2]: 103.62 % of basal levels
- HVA release (% of basal levels) measured in dialysates [2]: 91.12 % of basal levels and 84.36 % of basal levels and 104.08 % of basal levels and 126.08 % of basal levels and 106.58 % of basal levels and 89.86 % of basal levels and 137.31 % of basal levels and 89.55 % of basal levels
- HVA release (% of basal levels) measured in dialysates, MEAN [3]: 102.12 % of basal levels
- HVA release (% of basal levels) measured in dialysates [3]: 105.21 % of basal levels and 84.02 % of basal levels and 95.14 % of basal levels and 119.75 % of basal levels and 76.92 % of basal levels and 96.18 % of basal levels and 146.40 % of basal levels and 93.34 % of basal levels
- HVA release (% of basal levels) measured in dialysates, MEAN [4]: 98.10 % of basal levels
- HVA release (% of basal levels) measured in dialysates [4]: 100.40 % of basal levels and 90.71 % of basal levels and 80.00 % of basal levels and 109.73 % of basal levels and 85.44 % of basal levels and 89.46 % of basal levels and 133.10 % of basal levels and 95.93 % of basal levels
- HVA release (% of basal levels) measured in dialysates, MEAN [5]: 98.25 % of basal levels
- HVA release (% of basal levels) measured in dialysates [5]: 101.22 % of basal levels and 90.35 % of basal levels and 83.39 % of basal levels and 123.68 % of basal levels and 80.06 % of basal levels and 94.85 % of basal levels and 114.56 % of basal levels and 97.90 % of basal levels
- HVA release (% of basal levels) measured in dialysates, MEAN [6]: 105.01 % of basal levels
- HVA release (% of basal levels) measured in dialysates [6]: 99.13 % of basal levels and 88.16 % of basal levels and 98.47 % of basal levels and 148.68 % of basal levels and 75.12 % of basal levels and 89.56 % of basal levels and 118.49 % of basal levels and 122.51 % of basal levels
- HVA release (% of basal levels) measured in dialysates, MEAN [7]: 92.26 % of basal levels
- HVA release (% of basal levels) measured in dialysates [7]: 94.88 % of basal levels and 58.87 % of basal levels and 92.33 % of basal levels and 106.33 % of basal levels and 75.16 % of basal levels and 112.83 % of basal levels and 123.56 % of basal levels and 74.10 % of basal levels
- HVA release (% of basal levels) measured in dialysates, MEAN [8]: 99.19 % of basal levels
- HVA release (% of basal levels) measured in dialysates [8]: 97.33 % of basal levels and 77.20 % of basal levels and 84.63 % of basal levels and 137.16 % of basal levels and 71.70 % of basal levels and 91.93 % of basal levels and 127.61 % of basal levels and 105.99 % of basal levels
- HVA release (% of basal levels) measured in dialysates, MEAN [9]: 87.32 % of basal levels
- HVA release (% of basal levels) measured in dialysates [9]: 93.31 % of basal levels and 31.10 % of basal levels and 89.25 % of basal levels and 99.64 % of basal levels and 66.49 % of basal levels and 109.12 % of basal levels and 117.65 % of basal levels and 101.69 % of basal levels
- HVA release (% of basal levels) measured in dialysates, MEAN [10]: 101.76 % of basal levels
- HVA release (% of basal levels) measured in dialysates [10]: 93.67 % of basal levels and 56.56 % of basal levels and 102.66 % of basal levels and 106.92 % of basal levels and 69.24 % of basal levels and 112.81 % of basal levels and 133.42 % of basal levels and 138.83 % of basal levels
- HVA release (% of basal levels) measured in dialysates, MEAN [11]: 96.24 % of basal levels
- HVA release (% of basal levels) measured in dialysates [11]: 84.70 % of basal levels and 71.14 % of basal levels and 87.80 % of basal levels and 117.29 % of basal levels and 74.11 % of basal levels
- HVA release (% of basal levels) measured in dialysates, MEAN [12]: 88.31 % of basal levels
- HVA release (% of basal levels) measured in dialysates [12]: 71.80 % of basal levels and 62.19 % of basal levels and 96.42 % of basal levels and 114.78 % of basal levels and 75.15 % of basal levels and 95.54 % of basal levels and 102.27 % of basal levels
- HVA release (% of basal levels) measured in dialysates, MEAN (SON-117 3 mg/kg IP, T-30 min-T0 (pre-administration)): 97.66 % of basal levels
- HVA release (% of basal levels) measured in dialysates, MEAN (SON-117 3 mg/kg IP, T-1 h 30-T-1 h (pre-administration)): 99.26 % of basal levels
- HVA release (% of basal levels) measured in dialysates, MEAN (SON-117 3 mg/kg IP, T-1 h-T-30 min (pre-administration)): 103.08 % of basal levels
- HVA concentration in prefrontal cortex, significant slight increase (SON-117 3 mg/kg IP, at 3.5 h): 114%
- HVA, difference to the citalopram group (two-way ANOVA) (SON-117 at the three doses tested, in function of time): no significant differences
- HVA (% of respective basal) MEAN (T0-T30 min): 101.53 % of respective basal
- HVA (% of respective basal) MEAN (T30-T1 h): 118.07 % of respective basal
- HVA (% of respective basal) MEAN (T1 h 30-T2 h): 112.1 % of respective basal
- HVA (% of respective basal) MEAN (T1 h-T1 h 30): 139.45 % of respective basal
- HVA (% of respective basal) MEAN (T2 h 30-T3 h): 111.13 % of respective basal
- HVA (% of respective basal) MEAN (T2 h-T2 h 30): 107.76 % of respective basal
- HVA (% of respective basal) MEAN (T3 h 30-T4 h): 113.38 % of respective basal
- HVA (% of respective basal) MEAN (T3 h-T3 h 30): 106.61 % of respective basal
- HVA (% of respective basal) MEAN (T4 h 30-T5 h): 102.76 % of respective basal
- HVA (% of respective basal) MEAN (T4 h-T4 h 30): 127.17 % of respective basal
- HVA (% of respective basal) MEAN (T5 h 30-T6 h): 109.97 % of respective basal
- HVA (% of respective basal) MEAN (T5 h-T5 h 30): 112.73 % of respective basal
- HVA (% of respective basal) MEAN (T6 h 30-T7 h): 113.53 % of respective basal
- HVA (% of respective basal) MEAN (T6 h-T6 h 30): 108.85 % of respective basal
- HVA (% of respective basal) MEAN (T-30 min-T0 (before administration)): 101.64 % of respective basal
- HVA (% of respective basal) MEAN (T-1 h 30-T-1 h (before administration)): 97.88 % of respective basal
- HVA (% of respective basal) MEAN (T-1 h-T-30 min (before administration)): 100.48 % of respective basal
